The nature of this data set: Microsomal stability assay. The class given is in vitro ADME, rat.

`COc1cc(NC(=O)c2ccccn2)ccc1Cl` [Compound 2, ML128]: the “Stability κ (decay constant, slope of log concentration vs time profile)” value (rat liver microsome, t1/2=ln2/κ) worked out at 0.116 min^−1. Also, under “rat, liver microsomes”, the half-life came out at 5.99 min.

The half-life is how long it takes for the measured level to halve. Higher therefore signals slow decline.

The values above are taken from publication PMC4684791 (Bioorganic & medicinal chemistry letters, 2015).
